“Also recorded” adds a separate entry of the source. Like-named read-outs stand apart in the source and are kept apart here.
How the values were obtained:
[1] = test system: non-small cell broncho-pulmonary carcinoma xenografts; settings: mouse, in vivo; cited from earlier work
A549 cells = assay: Cell viability assay (CellTiter-Glo), growth inhibition of A549 cells; assay type: cell-based, human; settings: 48 h incubation
Experimental: Cell Viability Assays. All assays were performed using at least three replicate wells for each concentration tested. Original 10-25 mM DMSO stock solution of bistramide A or its analogs was diluted to 100 μM for analogs 4-8, 10 μM for analog 3, 5 μM for analog 2 and 1 μM for bistramide A (1) with F-12K cell culture media supplemented with 10% fetal bovine serum, 100 I.U./ml penicillin, 100 μg/ml streptomycin and 2 mM L-glutamine. Two-fold serial dilutions were performed and used for cell-based assays. A549 cells were grown in 96-well white plates at the density of 1,000 cells per well in 100 μl F-12K cell culture media. Cells were allowed to attach over 24 h and treated with 30 μl of the drug solution and incubated further for 48 h. After incubation, cell viability was determined using luminescence-based commercial kit (CellTiter-Glo, Promega) and luminescence measured using a Wallac Victor 3 plate reader. To measure cell growth inhibition, viability assays were performed twice: at initial time point T0 and after 48 h incubation (T48). Change in the number of viable cells was measured, and GI50 was calculated from sigmoidal plots. For analog 10, growth of A549 and PC3 cells was monitored over 96 h following addition of the drug. 100 μM was the highest concentration tested. At no point did the total DMSO conc. exceed 1%.

F-actin in A549 cells = assay: Fluorescent visualization of F-actin in A549 cells (Alexa Fluor 488 phalloidin); assay type: cell-based, human; settings: for concentration inducing actin depolymerization in A549 cells: 2 h incubation; for actin depolymerization in A549 cells: 100 μM, 2 h
Experimental: The presence of the enone increased the severing efficiency of the analogs three-fold. […] We determined whether it was the depletion of actin filaments by analogs 2-5 which was responsible for the growth inhibition of A549 cells. Each of the compounds was incubated with A549 cells for 2 h at a concentration that exceeded the GI50 value by a factor of 5. The cells were then fixed, permeabilized and filamentous actin was visualized by fluorescence microscopy following Alexa Fluor 488 phalloidin staining. […] They induced depolymerization at 150 nM for bistramide A (1), 500 nM for analog 2 and 2 μM for analog 3. Analogs 4 and 5 induced depolymerization of actin only at concentrations as high as 100 μM. […] This observation was consistent with the enhanced cell-based activity of the compounds containing the C(1)-C(4) enone moiety.
Fluorescent Visualization Of F-Actin In Cells. A549 cells grown on coverslips were incubated with analogs 4-8 (100 μM) analog 3 (2 μM) or analog 2 (500 nM) or bistramide A (150 nM) in F-12K cell culture medium for 2 h, fixed with 3% formaldehyde in PBS at 25° C. for 5 min and permeabilized with 0.1% Triton X-100 at 25° C. for 10 min. After washing with PBS, coverslips were stained with Alexa Fluor 488 Phalloidin and visualized by fluorescence microscopy.

G-actin [2] = biological target: T1, G-actin (Oryctolagus cuniculus, UniProt P68135); assay: Isothermal titration calorimetry, binding to monomeric actin; design: species or system rabbit; settings: for Kd: isothermal titration calorimetry, 25° C.
T1 construct: Actin was purified from rabbit muscle acetone powder; tissue Pel-Freez Biologicals (acetone powder); host or cells: rabbit muscle acetone powder
Experimental: Isothermal Titration Calorimetry. A solution of rabbit skeletal muscle actin (5-10 μM) was titrated with bistramide A or its analog (50-100 μM) at 25° C. in buffer containing 2 mM Tris HCl, pH 8.0, 0.2 mM CaCl2, 0.01% NaN3, 0.2 mM ATP, 0.2 mM 2-mercaptoethanol. Dissociation constants were calculated from the binding curve using Origin analytical software (OriginLab) with the binding model involving a single set of identical sites

G-actin [3] = biological target: T1, G-actin; assay: Interaction with actin by MALDI-TOF (covalent modification); assay type: biochemical, rabbit; settings: 1:1 actin-drug complex, 30 min
Experimental: Interaction Of Bistramide-Based Compounds With Actin By MALDI-TOF. A 1:1 actin-drug complex was incubated for 30 min in 2 mM Tris-HCl, pH 8.0, 0.2 mM CaCl2, 0.01% NaN3, 0.2 mM ATP, 1 mM 2-mercaptoethanol, diluted with deionized water to 26 μM and mixed with an equal volume of a solution of 10 mg/ml sinapinic acid in 50% CH3CN— 0.1% TFA. MALDI spectra were obtained on a Voyager-DE PRO biospectrometry workstation.

filamentous actin = filamentous actin (Oryctolagus cuniculus, UniProt P68135); assay: TIRF microscopy of actin filament severing and depolymerization; assay type: biochemical, rabbit; design: Actin was purified from rabbit muscle acetone powder; tissue Pel-Freez Biologicals (acetone powder); host or cells: rabbit muscle acetone powder; settings: for Pointed-end depolymerization rate: standard deviations 0.1-0.3 subunits/s; for Barbed-end depolymerization rate: standard deviations 0.4-0.6 subunits/s; for effect on actin depolymerization: concentrations as high as 200 μM; for severing of actin filaments compared to bistramide A (1): determined at 15 μM
Text: To gain further insight into the mode of action of bistramide A, we next investigated the interaction of the natural product and its analogs with filamentous actin. […] Similar observations have been reported for several other actin-binding natural products. However, this effect could provide only limited mechanistic information and may primarily reflect the binding of a small molecule to the filaments in close proximity to the dye and quenching of pyrene fluorescence, which could be independent of the rates of actin depolymerization. Some proteins like myosin and Actin Depolymerizing Factor (ADF)/Cofilin are known to do so. Total internal reflection fluorescence (TIRF) microscopy has recently emerged as a powerful tool to investigate actin filament dynamics and its regulation by several actin-binding proteins, as well as latrunculin A, which is […] depolymerizing filamentous actin in vitro. Thus, we decided to employ TIRF microscopy to observe in real time the effects of bistramide-based compounds on actin polymerization in vitro. We believe this is the first instance where TIRF microscopy has been utilized to study the severing of actin filaments by a small molecule. We polymerized G-actin containing 25% of tetramethylrhodamine-functionalized and 10% of biotin-functionalized actin. The resulting actin filaments were immobilized onto the streptavidin-coated glass slides (in a flow cell). Analogs 1-8 were flown through the flow cell and imaged by time-lapse TIRF microscopy.
Total Internal Reflection Fluorescence Microscopy. Actin filament severing was studied using a custom-built total internal reflection fluorescence microscope. Images were collected with a 100×, 1.45 NA objective (Olympus) and an EMCCD camera (iXon, Andor Technologies). Glass flow cell (6 μl volume) was washed with 0.25 mg/ml neutravidin in F-buffer (50 mM KCl, 1 mM MgCl2, 1 mM EGTA, 10 mM imidiazole, 2 mM ATP, 0.2 mM 2-mercaptoethanol, 2 min) and blocked with 1 mg/ml BSA in F-buffer (2 min). Ten microliters of 200 nM Mg^2+-F-actin (10% biotinylated, 25% labeled with maleimide-6-tetramethylrhodamine) in TIRF-buffer (50 mM KCl, 1 mM MgCl2, 1 mM EGTA, 10 mM imidiazole, 2 mM ATP, 4.5 mg/ml glucose, 0.5% 2-mercaptoethanol, 4.3 mg/ml glucose oxidase, 0.7 mg/ml catalase) was added to the flowcell and incubated for 2 min. The chamber was rinsed with TIRF-buffer and imaged. Compounds were freshly diluted from their DMSO stock solutions in TIRF-buffer and were added to the chamber immediately after the start of each experiment. Images were collected at 0.2-s exposures every 3 s for 200 frames. For kinetics studies, movies of suitable length were obtained for each of the analog concentrations. Analysis was performed using ImageJ.

[4] = mouse, in vivo; cited from earlier work
[5] = Homo sapiens, A549, 48 h, read-out: GI50
[6] = Homo sapiens, A549, 48 h, values of the text, read-out: GI50

| Compound | GI50 (A549 cells; [5]) [nM] | concentration inducing actin depolymerization in A549 cells (F-actin in A549 cells) [µM] | Kd (G-actin [2]; read-out: Kd) [nM] | covalent modification of G-actin (G-actin [3]) | No. of breaks per 100 μm (filamentous actin; compound at 200 μM) | Pointed-end depolymerization rate (filamentous actin; compound at 200 μM) [subunits/s] | Barbed-end depolymerization rate (filamentous actin; compound at 200 μM) [subunits/s] | GI50 (A549 cells) | actin depolymerization in A549 cells (F-actin in A549 cells) | No. of breaks per 100 μm (filamentous actin; compound at 15 μM) [per 100 μm] | Pointed-end depolymerization rate (filamentous actin; compound at 15 μM) [subunits/s] | Barbed-end depolymerization rate (filamentous actin; compound at 15 μM) [subunits/s] | severing of actin filaments compared to bistramide A (1) (filamentous actin) | further results |
| --- | --- | --- | --- | --- | --- | --- | --- | --- | --- | --- | --- | --- | --- | --- |
| C/C=C/[C@H](O)CC1CCC(C)C(CC(=O)NCC(O)C(C)C(=O)NCCCC2OC3(CCCC(CCC(C)/C=C(\C)C(C)O)O3)CCC2C)O1 (stereo partly drawn) [bistramide D] |  |  |  |  |  |  |  |  |  |  |  |  |  | inhibition of tumor growth in xenograft model [1]: shown to inhibit proliferation; also recorded: effective at inhibiting tumor growth in vivo |
| C=CCC[C@@H]1CCC[C@]2(CCC[C@@H](CCCNC(=O)[C@@H](C)[C@@H](O)CNC(=O)CC3O[C@H](CC(=O)/C=C/C)CCC3C)O2)O1 (stereo partly drawn) [Analog 3] | 323 | 2 | 1500 | covalently modified G-actin | 13.3 per 100 μm | 0.57 | 1.84 |  |  |  |  |  |  | GI50 (A549 cells; [6]): 323 nM; concentration at which actin filaments were severed (filamentous actin): 200 µM |
| COCCC(=O)NC[C@H](O)[C@H](C)C(=O)NCCCCC(C)C [Analog 8] |  |  |  |  | None | 0.21 | 2.15 | No cell -based activity | No depolymerization was observed |  |  |  |  | observable activity (actin binding by ITC and inhibition of A549 proliferation) (G-actin [2]): neither the spiroketal (analog 7) nor the central amide subunit (analog 8) alone displayed any observable activity; Kd (G-actin [2]): No actin binding; effect on actin depolymerization (filamentous actin): no effect on actin depolymerization |
| C/C=C/C(O)C/C=C/CC(C)C(O)CC(=O)NCC(O)C(C)C(=O)NCCCC1OC2(CCCC(CCC(C)/C=C(\C)C(C)O)O2)CCC1C (stereo not drawn) [bistramide K] |  |  |  |  |  |  |  |  |  |  |  |  |  | inhibition of tumor growth in xenograft model [1]: shown to inhibit proliferation; also recorded: effective at inhibiting tumor growth in vivo; dose with no observed toxicity [4]: up to 200 mg/kg |
| C=CCC[C@@H]1CCC[C@]2(CCC[C@@H](CCCNC(=O)[C@@H](C)[C@@H](O)CNC(=O)CCOC)O2)O1 [Analog 6] | > 100000 |  | 680 | no cross-linking was observed | 3.4 per 100 μm | 0.41 | 2.29 | No cell -based activity | No depolymerization was observed |  |  |  |  | concentration at which actin filaments were severed (filamentous actin): 200 µM |
| C=C[C@@H](C)CC[C@@H]1CCC[C@]2(CCC(C)[C@@H](CCCNC(=O)[C@@H](C)[C@@H](O)CNC(=O)CCOC)O2)O1 (stereo partly drawn) [Analog 5] | 15100 | 100 | 43 | no cross-linking was observed |  |  |  |  |  | 13.0 | 0.55 | 1.93 | severed actin filaments albeit with lesser efficiency |  |
| C=C[C@@H](C)CC[C@@H]1CCC[C@]2(CCC(C)[C@@H](CCCNC(C)=O)O2)O1 (stereo partly drawn) [Analog 7] |  |  |  |  | 0.2 per 100 μm | 0.32 | 1.87 | No cell -based activity | No depolymerization was observed |  |  |  |  | observable activity (actin binding by ITC and inhibition of A549 proliferation) (G-actin [2]): neither the spiroketal (analog 7) nor the central amide subunit (analog 8) alone displayed any observable activity; Kd (G-actin [2]): No actin binding; effect on actin depolymerization (filamentous actin): no effect on actin depolymerization |
| C=CC[C@@H]1CCCC(CC(=O)NC[C@H](O)[C@H](C)C(=O)NCCC[C@H]2O[C@@]3(CCC[C@@H](CC[C@H](C)C=C)O3)CCC2C)O1 (stereo partly drawn) [Analog 4] | 11200 | 100 | 319 | no cross-linking was observed |  |  |  |  |  | 16.5 | 0.51 | 1.92 | severed actin filaments albeit with lesser efficiency |  |
| C=C[C@@H](C)CC[C@@H]1CCC[C@]2(CCC(C)[C@@H](CCCNC(=O)[C@@H](C)[C@@H](O)CNC(=O)CC3O[C@H](CC(=O)/C=C/C)CCC3C)O2)O1 (stereo partly drawn) [Analog 2] | 87 | 0.5 | 70 | covalently modified G-actin |  |  |  |  |  | 41.8 | 0.48 | 1.90 | severed actin filaments albeit with lesser efficiency | GI50 (A549 cells; [6]): 87.1 nM; potency at severing filamentous actin relative to analog 4 (filamentous actin; initial rate of severing, 1-15 μM): at least three times more potent at severing filamentous actin |
